# Laboratory results reported in patent US10300059B2, “Pharmaceutical composition and therapeutic combination comprising a cholesteryl ester transfer protein inhibitor and HMG CoA reductase inhibitors” (DEZIMA PHARMA B.V., priority 2014, dated 2019).
# Read-outs that look alike come from different tables or passages of the source.
# Columns and labels:
# [1] = tested on: patients with mild dyslipidemia; assay: Serum-driven cholesterol efflux, baseline versus week 12 of the phase 2 trial; assay type: in vivo, human; details: p<0.0001
# Description: Bars are means and error bars are standard deviations. The baseline data only includes patients who had both baseline and week 12 data.
# In this Figure baseline and week 12 data for serum-driven cholesterol efflux is shown. Bars are means and error bars are standard deviations. The baseline data only includes patients who had both baseline and week 12 data.
# [2] = tested on: patients with mild dyslipidemia; assay: Double-blind, placebo-controlled phase 2 trial: fasted lipid profile after 12 weeks; assay type: in vivo, human
# Procedure: In a double-blind, placebo controlled clinical study the effects of 12 weeks of administration of Compound A alone and in combination with statins in patients with mild dyslipidemia was examined. […] Patients were recruited at 20 sites in the Netherlands and Denmark. The trial was approved by Independent Ethics Committees, and each patient provided written informed consent. The trial was conducted in accordance with the principles of the Declaration of Helsinki and Good Clinical Practice Guidelines and the protocol was registered on ClinicalTrials.gov (NCT01970215). The trial consisted of a screening visit, followed by a run-in phase of 4 weeks (or 6 weeks for patients that required a washout of existing lipid-lowering therapy). […] All treatments were to be taken once daily with food for 12 weeks. […] Follow-up visits were conducted 2 and 8 weeks after the end of treatment. Safety was assessed throughout the trial by monitoring adverse events and concomitant medication use, 12-lead electrocardiograms (ECGs), vital signs, laboratory safety assessments and physical examinations. Additional assessments included salivary cortisol, plasma aldosterone, high-sensitivity C-reactive protein (hsCRP) and endothelin 1. Efficacy assessments included fasted lipid profiles including total cholesterol (TC), HDL-C, LDL-C, triglycerides, apolipoproteins AI, B and E (ApoAI, Apo B and ApoE), lipoprotein a (Lp[a]) and derived parameters. […] Blood samples were collected for pharmacokinetic analysis of Compound A. Total cholesterol and triglycerides were measured by homogenous enzymatic assay using a Modular analyser (cholesterol oxidase peroxidase-peroxidase aminophenazone phenol [CHOP-PAP]) method and a glycerol phosphate oxidase [GPO-PAP] method, respectively. […] Lp(a) was measured by immunoturbidimetry using reagents and standards from Wako Chemicals (Germany). LDL particle size was determined by gradient gel electrophoresis. HDL fraction was separated by a combined ultracentrifugation-precipitation method ((β-quantification). HDL-2 and HDL-3 fractions were then separated by further ultracentrifugation. […] The measurements were performed on an Olympus AU600 automatic analyzer and were calibrated using secondary standards from Roche Diagnostics (total-cholesterol, triglycerides) and Diasys Diagnostics (free cholesterol, phospholipids), respectively. Esterified cholesterol was calculated as the difference between total-cholesterol and free cholesterol. […] The primary and secondary efficacy analyses were performed using an analysis of covariance (ANCOVA) model with treatment and use of statin therapy at randomisation as factors and the baseline value for the respective efficacy variable as a covariate. Least-squares means, standard errors and 2-tailed 95% confidence intervals for each treatment group and for pairwise comparisons between Compound A doses and placebo, between Compound A plus atorvastatin and atorvastatin alone, and between Compound A plus rosuvastatin and rosuvastatin alone were provided. As there were two co-primary efficacy variables, a closed testing procedure was used in order to control the family-wise error. No interim analyses were planned or conducted.
# [3] = cited from earlier work
# endothelin-1 = details: animal studies; cited from earlier work
# [4] = in vivo; cited from earlier work
# [5] = data from phase 2 studies; cited from earlier work
# patients [6] = details: 500 mg once daily monotherapy in patients; cited from earlier work
# patients [7] = details: 150 mg once daily; cited from earlier work
# [8] = in humans; accumulates in fat tissue; cited from earlier work
# fasted healthy subjects = details: 200 mg once daily; cited from earlier work
# [9] = 2.5 mg of Compound A once daily
# [10] = atorvastatin (20 mg) once daily
# [11] = rosuvastatin (10 mg) once daily
smiles,measurement,setting,value
"CCOC(=O)N1c2ccc(C(F)(F)F)cc2[C@@H](N(Cc2cc(C(F)(F)F)cc(C(F)(F)F)c2)c2ncc(OCCCC(=O)O)cn2)C[C@H]1CC [Compound A, {4-[(2-{[3,5-bis(trifluoromethyl)benzyl][(2R,4S)-1-(ethoxycarbonyl)-2-ethyl-6-(trifluoromethyl)-1,2,3,4-tetrahydroquinolin-4-yl]amino}pyrimidin-5-yl)oxy]butanoic acid}]",increase in the ability of serum to promote cholesterol efflux,[1]; 1 mg of Compound A,16.9%
same,increase in serum-mediated cholesterol efflux,[1]; 10 mg dose of Compound A,36.7%
same,"HDL-C, percentage change at Week 12 compared to baseline",[2]; 1 mg of Compound A once daily,76.04
same,"LDL-C, percentage change at Week 12 compared to baseline",[2]; 1 mg of Compound A once daily,−27.05
same,"Lp(a), percentage change at Week 12 compared to baseline",[2]; 1 mg of Compound A once daily,−28.81
same,"HDL-C, percentage change at Week 12 compared to baseline",[2]; [9],122.28
same,"LDL-C, percentage change at Week 12 compared to baseline",[2]; [9],−34.38
same,"Lp(a), percentage change at Week 12 compared to baseline",[2]; [9],−26.69
same,"HDL-C, percentage change at Week 12 compared to baseline",[2]; 5 mg of Compound A once daily,160.90
same,"LDL-C, percentage change at Week 12 compared to baseline",[2]; 5 mg of Compound A once daily,−47.49
same,"Lp(a), percentage change at Week 12 compared to baseline",[2]; 5 mg of Compound A once daily,−37.33
same,"HDL-C, percentage change at Week 12 compared to baseline",[2]; 10 mg of Compound A once daily,180.64
same,"LDL-C, percentage change at Week 12 compared to baseline",[2]; 10 mg of Compound A once daily,−47.26
same,"Lp(a), percentage change at Week 12 compared to baseline",[2]; 10 mg of Compound A once daily,−34.86
"CCOC(=O)N1c2ccc(C(F)(F)F)cc2[C@@H](N(Cc2cc(C(F)(F)F)cc(C(F)(F)F)c2)C(=O)OC)C[C@H]1CC [Torcetrapib, torcetrapib]",off-target effects,[3]; consistent with mineralocorticoid activity,"increased blood pressure, changes in electrolytes (increases in sodium and bicarbonate and decreases in potassium) and increases in aldosterone"
same,decrease of LDL-C,[3]; dosed at 60 mg,25%
same,increase of HDL-C,[3]; dosed at 60 mg,72%
same,safety concerns,[3]; in combination with the HMG CoA reductase inhibitor atorvastatin,unexpected increase in cardiovascular events and death
same,expression of endothelin-1,endothelin-1,increases expression of endothelin-1
"CCC(CC)CC1(C(=O)Nc2ccccc2SC(=O)C(C)C)CCCCC1 [Dalcetrapib, dalcetrapib]",effects on LDL-C concentrations,[4],minimal effects
same,increase of HDL-C,[4],30-40%
"Cc1cc(C)c2c(c1)[C@@H](N(Cc1cc(C(F)(F)F)cc(C(F)(F)F)c1)c1nnn(C)n1)CCCN2C[C@H]1CC[C@H](C(=O)O)CC1 [Evacetrapib, evacetrapib]",mineralocorticoid activity,[5],without mineralocorticoid activity
same,decrease of LDL-C,patients [6],36%
same,increase of HDL-C,patients [6],129%
"CC(C)c1c(C(=O)Nc2ccccc2)c(-c2ccccc2)c(-c2ccc(F)cc2)n1CC[C@@H](O)C[C@@H](O)CC(=O)O [Atorvastatin, atorvastatin]","HDL-C, percentage change at Week 12 compared to baseline",[2]; [10],1.27
same,"LDL-C, percentage change at Week 12 compared to baseline",[2]; [10],−46.73
same,"Lp(a), percentage change at Week 12 compared to baseline",[2]; [10],−4.46
"CC(C)c1nc(N(C)S(C)(=O)=O)nc(-c2ccc(F)cc2)c1/C=C/[C@@H](O)C[C@@H](O)CC(=O)O [Rosuvastatin, rosuvastatin]","HDL-C, percentage change at Week 12 compared to baseline",[2]; [11],6.16
same,"LDL-C, percentage change at Week 12 compared to baseline",[2]; [11],−47.36
same,"Lp(a), percentage change at Week 12 compared to baseline",[2]; [11],−7.79
"COc1cc(F)c(C(C)C)cc1-c1ccc(C(F)(F)F)cc1CN1C(=O)O[C@H](c2cc(C(F)(F)F)cc(C(F)(F)F)c2)[C@@H]1C [Anacetrapib, anacetrapib]",decrease of LDL-C,patients [7],40%
same,increase of HDL C,patients [7],139%
same,half life,[8],2-4 years
same,mineralocorticoid activity,[5],without mineralocorticoid activity
same,decrease of LDL-C,fasted healthy subjects,36%
same,increase of HDL C,fasted healthy subjects,97%
